The source of these data is patent US11524968B2, “Heterocyclic compound as a protein kinase inhibitor” (HK inno.N Corporation, priority 2017, dated 2022).

For this test, the target named is JAK1 (Homo sapiens (Human), UniProt P23458). The experiment in a line: Analysis of JAK1 activity inhibition ability (ADP-Glo Kinase Assay). The following applies: JAK1 enzyme, ADP-Glo luminescence, ATP 250 uM, IRS-itide substrate, 30° C. 40 minutes; read-out: IC50. The test is classed as biochemical. The method in brief:
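ADP-Glo luminescence read-out of ADP production, with IC50 taken as the concentration halving JAK1 activity relative to control. Enzyme was incubated 40 min at 30 °C with compound, IRS-itide (40 ng/mL) and ATP (250 uM), concentrations as prepared in pH 7.5 Tris-HCl/MgCl2/BSA/DTT buffer.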
Background: In ADP-Glo the light output rises with the ADP produced.

The structures appear in SMILES notation.

JAK1, sequence (P23458 whole entry): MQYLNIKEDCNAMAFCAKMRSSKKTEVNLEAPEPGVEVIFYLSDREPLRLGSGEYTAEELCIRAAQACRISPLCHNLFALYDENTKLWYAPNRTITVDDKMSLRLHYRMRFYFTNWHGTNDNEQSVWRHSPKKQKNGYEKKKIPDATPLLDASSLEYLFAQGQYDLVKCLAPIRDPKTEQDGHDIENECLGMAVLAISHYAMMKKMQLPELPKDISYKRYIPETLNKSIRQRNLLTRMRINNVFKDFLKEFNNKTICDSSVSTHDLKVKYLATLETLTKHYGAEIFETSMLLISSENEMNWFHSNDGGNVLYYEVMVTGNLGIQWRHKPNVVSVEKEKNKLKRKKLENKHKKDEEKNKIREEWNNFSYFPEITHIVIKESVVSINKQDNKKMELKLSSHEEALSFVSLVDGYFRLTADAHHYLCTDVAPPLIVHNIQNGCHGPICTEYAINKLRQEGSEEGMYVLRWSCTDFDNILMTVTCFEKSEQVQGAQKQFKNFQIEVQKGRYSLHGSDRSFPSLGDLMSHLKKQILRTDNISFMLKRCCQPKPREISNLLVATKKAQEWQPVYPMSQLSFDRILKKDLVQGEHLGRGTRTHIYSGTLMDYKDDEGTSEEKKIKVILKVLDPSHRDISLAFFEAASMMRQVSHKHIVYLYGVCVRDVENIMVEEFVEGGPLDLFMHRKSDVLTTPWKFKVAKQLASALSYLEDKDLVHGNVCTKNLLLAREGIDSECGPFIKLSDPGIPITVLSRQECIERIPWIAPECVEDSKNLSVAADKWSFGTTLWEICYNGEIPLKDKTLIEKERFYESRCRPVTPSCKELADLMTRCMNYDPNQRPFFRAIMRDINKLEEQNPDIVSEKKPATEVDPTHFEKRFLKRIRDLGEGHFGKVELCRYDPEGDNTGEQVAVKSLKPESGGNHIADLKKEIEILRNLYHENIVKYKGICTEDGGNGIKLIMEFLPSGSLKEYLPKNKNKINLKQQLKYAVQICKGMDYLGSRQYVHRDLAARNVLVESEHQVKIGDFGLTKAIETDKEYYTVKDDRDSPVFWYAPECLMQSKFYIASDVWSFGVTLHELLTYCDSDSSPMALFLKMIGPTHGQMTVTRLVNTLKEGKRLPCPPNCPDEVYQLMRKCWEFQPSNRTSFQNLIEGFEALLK

What is called IC50 is the concentration that inhibits the measured activity by half. With `O=C(Nc1cc(C2=CCN(S(=O)(=O)c3ccc(F)c(F)c3)CC2)c2cc[nH]c2n1)C1CC1` [Example 173, N-(4-(1-((3,4-difluorophenyl)sulfonyl)-1,2,3,6-tetrahydropyridin-4-yl)-1H-pyrrolo[2,3-b]pyridin-6-yl)cyclopropanecarboxamide], the IC50 lay in the range of 20 to 200 nM.
In the case of `CCS(=O)(=O)N1C2C=C(c3cc(NC(=O)C4CC4)nc4[nH]ccc34)CC1CC2` (centres unmarked) [Example 174, N-(4-(8-(ethylsulfonyl)-8-azabicyclo[3.2.1]oct-2-en-3-yl)-1H-pyrrolo[2,3-b]pyridin-6-yl)cyclopropanecarboxamide] it was 20 to 200 nM; in that of `O=C(Nc1cc(C2=CC3CCC(C2)N3S(=O)(=O)CCCF)c2cc[nH]c2n1)C1CC1` (centres unmarked) [Example 175, N-(4-(8-((3-fluoropropyl)sulfonyl)-8-azabicyclo[3.2.1]oct-2-en-3-yl)-1H-pyrrolo[2,3-b]pyridin-6-yl)cyclopropanecarboxamide], 20 to 200 nM; in that of `CCCS(=O)(=O)N1C2C=C(c3cc(NC(=O)C4CC4)nc4[nH]ccc34)CC1CC2` (centres unmarked) [Example 176, N-(4-(8-(propylsulfonyl)-8-azabicyclo[3.2.1]oct-2-en-3-yl)-1H-pyrrolo[2,3-b]pyridin-6-yl)cyclopropanecarboxamide], 20 to 200 nM.
The result for `O=C(Nc1cc(C2=CC3CCC(C2)N3S(=O)(=O)C2CC2)c2cc[nH]c2n1)C1CC1` (centres unmarked) [Example 177, N-(4-(8-(cyclopropylsulfonyl)-8-azabicyclo[3.2.1]oct-2-en-3-yl)-1H-pyrrolo[2,3-b]pyridin-6-yl)cyclopropanecarboxamide] reads 20 to 200 nM; that for `O=C(Nc1cc(C2=CC3CCC(C2)N3S(=O)(=O)c2ccc(F)c(F)c2)c2cc[nH]c2n1)C1CC1` (centres unmarked) [Example 178, N-(4-(8-((3,4-difluorophenyl)sulfonyl)-8-azabicyclo[3.2.1]oct-2-en-3-yl)-1H-pyrrolo[2,3-b]pyridin-6-yl)cyclopropanecarboxamide], 20 to 200 nM.
The result for `CCS(=O)(=O)N1CC=C(c2cc(NC(=O)C3CC3)nc3[nH]ccc23)C(C)(C)C1` [Example 179, N-(4-(1-(ethylsulfonyl)-3,3-dimethyl-1,2,3,6-tetrahydropyridin-4-yl)-1H-pyrrolo[2,3-b]pyridin-6-yl)cyclopropanecarboxamide] reads more than 200 nM; that for `CC1(C)CN(S(=O)(=O)CCCC#N)CC=C1c1cc(NC(=O)C2CC2)nc2[nH]ccc12` [Example 180, N-(4-(1-((3-cyanopropyl)sulfonyl)-3,3-dimethyl-1,2,3,6-tetrahydropyridin-4-yl)-1H-pyrrolo[2,3-b]pyridin-6-yl)cyclopropanecarboxamide], 20 to 200 nM.
For the compound `O=C(Nc1nc(-c2ccc(NS(=O)(=O)c3ccc(F)c(F)c3)cc2)c2cc[nH]c2n1)C1CC1` [Example 181, N-(4-(4-((3,4-difluorophenyl)sulfonamido)phenyl)-7H-pyrrolo[2,3-d]pyrimidin-2-yl)cyclopropanecarboxamide], the concentration for half-maximal inhibition (IC50) is less than 20 nM.
In the case of `CCS(=O)(=O)Nc1ccc(-c2nc(NC(=O)C3CC3)nc3[nH]ccc23)cc1` [Example 182, N-(4-(4-(ethylsulfonamido)phenyl)-7H-pyrrolo[2,3-d]pyrimidin-2-yl)cyclopropanecarboxamide] it was 20 to 200 nM.
The result for `O=C(Nc1nc(-c2ccc(NS(=O)(=O)C3CCCCC3)cc2)c2cc[nH]c2n1)C1CC1` [Example 183, N-(4-(4-(cyclohexanesulfonamido)phenyl)-7H-pyrrolo[2,3-d]pyrimidin-2-yl)cyclopropanecarboxamide] reads less than 20 nM.
The result for `O=C(Nc1nc(-c2ccc(NS(=O)(=O)CCCC(F)(F)F)cc2)c2cc[nH]c2n1)C1CC1` [Example 184, N-(4-(4-((4,4,4-trifluorobutyl)sulfonamido)phenyl)-7H-pyrrolo[2,3-d]pyrimidin-2-yl)cyclopropanecarboxamide] reads 20 to 200 nM.
Turning to `O=C(Nc1nc(-c2ccc(NS(=O)(=O)CCCF)cc2)c2cc[nH]c2n1)C1CC1` [Example 185, N-(4-(4-((3-fluoropropyl)sulfonamido)phenyl)-7H-pyrrolo[2,3-d]pyrimidin-2-yl)cyclopropanecarboxamide], the IC50 is less than 20 nM.
In the case of `N#CCCCS(=O)(=O)Nc1ccc(-c2nc(NC(=O)C3CC3)nc3[nH]ccc23)cc1` [Example 186, N-(4-(4-((3-cyanopropyl)sulfonamido)phenyl)-7H-pyrrolo[2,3-d]pyrimidin-2-yl)cyclopropanecarboxamide] it was 20 to 200 nM; in that of `O=C(Nc1nc(-c2ccc(NS(=O)(=O)c3ccc(Cl)cc3)cc2)c2cc[nH]c2n1)C1CC1` [Example 187, N-(4-(4-((4-chlorophenyl)sulfonamido)phenyl)-7H-pyrrolo[2,3-d]pyrimidin-2-yl)cyclopropanecarboxamide], 20 to 200 nM; in that of `O=C(Nc1nc(-c2ccc(NS(=O)(=O)c3ccc(F)cc3)cc2)c2cc[nH]c2n1)C1CC1` [Example 188, N-(4-(4-((4-fluorophenyl)sulfonamido)phenyl)-7H-pyrrolo[2,3-d]pyrimidin-2-yl)cyclopropanecarboxamide], less than 20 nM.
In the case of `O=C(Nc1nc(-c2ccc(NS(=O)(=O)c3ccc(Br)cc3)cc2)c2cc[nH]c2n1)C1CC1` [Example 189, N-(4-(4-((4-bromophenyl)sulfonamido)phenyl)-7H-pyrrolo[2,3-d]pyrimidin-2-yl)cyclopropanecarboxamide] it was 20 to 200 nM; in that of `CCCS(=O)(=O)Nc1ccc(-c2nc(NC(=O)C3CC3)nc3[nH]ccc23)cc1` [Example 190, N-(4-(4-(propylsulfonamido)phenyl)-7H-pyrrolo[2,3-d]pyrimidin-2-yl)cyclopropanecarboxamide], less than 20 nM; in that of `CCCCS(=O)(=O)Nc1ccc(-c2nc(NC(=O)C3CC3)nc3[nH]ccc23)cc1` [Example 191, N-(4-(4-(butylsulfonamido)phenyl)-7H-pyrrolo[2,3-d]pyrimidin-2-yl)cyclopropanecarboxamide], less than 20 nM.
In the case of `O=C(Nc1nc(-c2ccc(NS(=O)(=O)c3cccc(F)c3)cc2)c2cc[nH]c2n1)C1CC1` [Example 192, N-(4-(4-((3-fluorophenyl)sulfonamido)phenyl)-7H-pyrrolo[2,3-d]pyrimidin-2-yl)cyclopropanecarboxamide] it was less than 20 nM.
In the case of `CN(c1ccc(-c2nc(NC(=O)C3CC3)nc3[nH]ccc23)cc1)S(=O)(=O)c1ccc(F)c(F)c1` [Example 193, N-(4-(4-((3,4-difluoro-N-methylphenyl)sulfonamido)phenyl)-7H-pyrrolo[2,3-d]pyrimidin-2-yl)cyclopropanecarboxamide], the concentration for half-maximal inhibition (IC50) was more than 200 nM.
For the compound `O=C(Nc1nc(-c2ccc(NS(=O)(=O)CCC(F)(F)F)cc2)c2cc[nH]c2n1)C1CC1` [Example 194, N-(4-(4-((3,3,3-trifluoropropyl)sulfonamido)phenyl)-7H-pyrrolo[2,3-d]pyrimidin-2-yl)cyclopropanecarboxamide], the concentration for half-maximal inhibition (IC50) was less than 20 nM.
In the case of `O=C(Nc1nc(-c2ccc(NS(=O)(=O)C3CCS(=O)(=O)CC3)cc2)c2cc[nH]c2n1)C1CC1` [Example 195, N-(4-(4-((1,1-dioxidotetrahydro-2H-thiopyran)-4-sulfonamido)phenyl)-7H-pyrrolo[2,3-d]pyrimidin-2-yl)cyclopropanecarboxamide] it was 20 to 200 nM.
In the case of `O=C(Nc1nc(-c2ccc(NS(=O)(=O)C3CCS(=O)(=O)C3)cc2)c2cc[nH]c2n1)C1CC1` (centres unmarked) [Example 196, N-(4-(4-((1,1-dioxidotetrahydrothiophene)-3-sulfonamido)phenyl)-7H-pyrrolo[2,3-d]pyrimidin-2-yl)cyclopropanecarboxamide] it was 20 to 200 nM; in that of `N#Cc1ccc(S(=O)(=O)Nc2ccc(-c3nc(NC(=O)C4CC4)nc4[nH]ccc34)cc2)cn1` [Example 197, N-(4-(4-((6-cyanopyridine)-3-sulfonamido)phenyl)-7H-pyrrolo[2,3-d]pyrimidin-2-yl)cyclopropanecarboxamide], more than 200 nM; in that of `Cn1cncc1S(=O)(=O)Nc1ccc(-c2nc(NC(=O)C3CC3)nc3[nH]ccc23)cc1` [Example 198, N-(4-(4-((1-methyl-1H-imidazole)-5-sulfonamido)phenyl)-7H-pyrrolo[2,3-d]pyrimidin-2-yl)cyclopropanecarboxamide], more than 200 nM.
In the case of `Cn1cc(S(=O)(=O)Nc2ccc(-c3nc(NC(=O)C4CC4)nc4[nH]ccc34)cc2)cn1` [Example 199, N-(4-(4-((1-methyl-1H-pyrazole)-4-sulfonamido)phenyl)-7H-pyrrolo[2,3-d]pyrimidin-2-yl)cyclopropanecarboxamide], the IC50 was more than 200 nM.
The result for `NC(=O)c1ccc(S(=O)(=O)Nc2ccc(-c3nc(NC(=O)C4CC4)nc4[nH]ccc34)cc2)cc1` [Example 200, 4-(N-(4-(2-(cyclopropanecarboxamido)-7H-pyrrolo[2,3-d]pyrimidin-4-yl)phenyl)sulfamoyl)benzamide] reads more than 200 nM; that for `CS(=O)(=O)Nc1ccc(-c2nc(NC(=O)C3CC3)nc3[nH]ccc23)cc1F` [Example 201, N-(4-(3-fluoro-4-(methylsulfonamido)phenyl)-7H-pyrrolo[2,3-d]pyrimidin-2-yl)cyclopropanecarboxamide], more than 200 nM; that for `CCS(=O)(=O)Nc1ccc(-c2nc(NC(=O)C3CC3)nc3[nH]ccc23)cc1F` [Example 202, N-(4-(4-(ethylsulfonamido)-3-fluorophenyl)-7H-pyrrolo[2,3-d]pyrimidin-2-yl)cyclopropanecarboxamide], 20 to 200 nM.
In the case of `O=C(Nc1nc(-c2ccc(NS(=O)(=O)CCCF)c(F)c2)c2cc[nH]c2n1)C1CC1` [Example 203, N-(4-(3-fluoro-4-((3-fluoropropyl)sulfonamido)phenyl)-7H-pyrrolo[2,3-d]pyrimidin-2-yl)cyclopropanecarboxamide] it was less than 20 nM.
For `N#CCCCS(=O)(=O)Nc1ccc(-c2nc(NC(=O)C3CC3)nc3[nH]ccc23)cc1F` [Example 204, N-(4-(4-((3-cyanopropyl)sulfonamido)-3-fluorophenyl)-7H-pyrrolo[2,3-d]pyrimidin-2-yl)cyclopropanecarboxamide], the IC50 was in the range of 20 to 200 nM.
